Reference: US20170333591A9, “ABSORBENT ARTICLE COMPRISING MALODOR REDUCTION COMPOSITIONS” (The Procter & Gamble Company, priority 2014, published 2017)

Assay: Log of liquid dish neat product liquid-air partition coefficient
Type: physicochemical
Conditions: for Log of liquid dish neat product liquid-air partition coefficient (Comment Code): code letters K/L of the Comment Code

Row | SMILES | Log of liquid dish neat product liquid-air partition coefficient (Comment Code) | Comment Code: Log of liquid dish neat product liquid-air partition coefficient
1 | CC(C)=CCCC1=CCC(C)(C=O)CC1 (centres unmarked) [Material 727] | K (Log of liquid dish neat product liquid-air partition coefficient greater than or equal to 7) | 
2 | CCCC(O)Cc1ccccc1 (centres unmarked) [Material 730] | K (Log of liquid dish neat product liquid-air partition coefficient greater than or equal to 7) | 
3 | CCC(C)(O)CCc1ccccc1 (centres unmarked) [Material 731] | K (Log of liquid dish neat product liquid-air partition coefficient greater than or equal to 7) | 
4 | CC(C)CCCC(C)CCCC(C)C=O (centres unmarked) [Material 741] | K (Log of liquid dish neat product liquid-air partition coefficient greater than or equal to 7) | 
5 | Cc1ccc(CC(C)C=O)cc1 (centres unmarked) [Material 742] | K (Log of liquid dish neat product liquid-air partition coefficient greater than or equal to 7) | 
6 | C=CCOC(=O)COc1ccccc1 [Material 743] |  | K (Log of liquid dish neat product liquid-air partition coefficient greater than or equal to 7)
7 | C=CCOCCc1ccccc1 [Material 744] |  | K (Log of liquid dish neat product liquid-air partition coefficient greater than or equal to 7)
8 | C=CCOC(=O)CCC1CCCCC1 [Material 746] | K (Log of liquid dish neat product liquid-air partition coefficient greater than or equal to 7) | 
9 | C=CCOC(=O)COCCC(C)C [Material 748] | K (Log of liquid dish neat product liquid-air partition coefficient greater than or equal to 7) | 
10 | CCC(=O)N(CC)c1cccc(C)c1 [Material 755] |  | K (Log of liquid dish neat product liquid-air partition coefficient greater than or equal to 7)
11 | CC(C)=CCCC(C)CCCC(C)C=O (centres unmarked) [Material 757] | K (Log of liquid dish neat product liquid-air partition coefficient greater than or equal to 7) | 
12 | COc1ccc(C(C)=O)cc1 [Material 761] |  | K (Log of liquid dish neat product liquid-air partition coefficient greater than or equal to 7)
13 | CCCOC(C)OCCc1ccccc1 (centres unmarked) [Material 766] | K (Log of liquid dish neat product liquid-air partition coefficient greater than or equal to 7) | 
14 | COCCOC(C)OCc1ccccc1 (centres unmarked) [Material 768] | K (Log of liquid dish neat product liquid-air partition coefficient greater than or equal to 7) | 
15 | C=C(C)C1CCC2(C)CCC=C(C)C2C1 (centres unmarked) [Material 774] | K (Log of liquid dish neat product liquid-air partition coefficient greater than or equal to 7) | 
16 | CC1=CCCC2(C)CCC(C(C)(C)O)CC12 (centres unmarked) [Material 775] | K (Log of liquid dish neat product liquid-air partition coefficient greater than or equal to 7) | K (Log of liquid dish neat product liquid-air partition coefficient greater than or equal to 7)
17 | CC(C)c1ccc2ncccc2c1 [Material 778] | K (Log of liquid dish neat product liquid-air partition coefficient greater than or equal to 7) | 
18 | CC1(C)C2CC=C(CCC=O)C1C2 (centres unmarked) [Material 781] | K (Log of liquid dish neat product liquid-air partition coefficient greater than or equal to 7) | 
19 | CC(=O)CCCC(C)CCCC(C)CCCC(C)C (centres unmarked) [Material 782] | K (Log of liquid dish neat product liquid-air partition coefficient greater than or equal to 7) | 
20 | O=C1CCCC=CCCCCCCCCCC1 [Material 788] | K (Log of liquid dish neat product liquid-air partition coefficient greater than or equal to 7) | K (Log of liquid dish neat product liquid-air partition coefficient greater than or equal to 7)
21 | C=Cc1ccc(O)cc1 [Material 789] |  | K (Log of liquid dish neat product liquid-air partition coefficient greater than or equal to 7)
22 | CC1=CCC(O)(C(C)C)CC1 (centres unmarked) [Material 791] | K (Log of liquid dish neat product liquid-air partition coefficient greater than or equal to 7) | 
23 | C=CCCC(=O)c1ccccc1 [Material 792] | K (Log of liquid dish neat product liquid-air partition coefficient greater than or equal to 7) | 
24 | CCc1ccc(OC)c(O)c1 [Material 797] |  | K (Log of liquid dish neat product liquid-air partition coefficient greater than or equal to 7)
25 | CC1=CCC(O)(C(C)C)CC1 (centres unmarked) [Material 800] | K (Log of liquid dish neat product liquid-air partition coefficient greater than or equal to 7) | 
26 | COc1ccc(CCC(C)=O)cc1 [Material 803] | K (Log of liquid dish neat product liquid-air partition coefficient greater than or equal to 7) | 

Row | SMILES | Log of liquid dish neat product liquid-air partition coefficient (Comment Code) | Comment Code: Log of liquid dish neat product liquid-air partition coefficient
27 | CC1C(=O)CC2(C)CCCC(C)(C)C23CC13 (centres unmarked) [Material 804] | K (Log of liquid dish neat product liquid-air partition coefficient greater than or equal to 7) | K (Log of liquid dish neat product liquid-air partition coefficient greater than or equal to 7)
28 | CCC=C1OC(=O)c2ccccc21 [Material 805] | K (Log of liquid dish neat product liquid-air partition coefficient greater than or equal to 7) | 
29 | CCCCCCCCCC=CC=O [Material 806] | K (Log of liquid dish neat product liquid-air partition coefficient greater than or equal to 7) | 
30 | CC(CC=O)CCc1ccccc1 (centres unmarked) [Material 807] | K (Log of liquid dish neat product liquid-air partition coefficient greater than or equal to 7) | 
31 | Cc1n[nH]cc1-c1ccccc1 [Material 808] |  | K (Log of liquid dish neat product liquid-air partition coefficient greater than or equal to 7)
32 | COc1cc(C)cc(O)c1 [Material 811] |  | K (Log of liquid dish neat product liquid-air partition coefficient greater than or equal to 7)
33 | C=C(C=O)C(C)CCC=C(C)C (centres unmarked) [Material 819] |  | K (Log of liquid dish neat product liquid-air partition coefficient greater than or equal to 7)
34 | CC(C)c1ccc(CCC=O)cc1 [Material 826] | K (Log of liquid dish neat product liquid-air partition coefficient greater than or equal to 7) | 
35 | CCCCCCCCC=CC#N [Material 827] | K (Log of liquid dish neat product liquid-air partition coefficient greater than or equal to 7) | 
36 | CCCCCCCCC=CC=O [Material 828] | K (Log of liquid dish neat product liquid-air partition coefficient greater than or equal to 7) | 
37 | CCCC(=O)OCCc1ccccc1 [Material 831] | K (Log of liquid dish neat product liquid-air partition coefficient greater than or equal to 7) | 
38 | CC(=O)OCCc1ccccc1 [Material 832] |  | K (Log of liquid dish neat product liquid-air partition coefficient greater than or equal to 7)
39 | OCCOc1ccccc1 [Material 834] | K (Log of liquid dish neat product liquid-air partition coefficient greater than or equal to 7) | 
40 | CCC(=O)OCCc1ccccc1 [Material 835] |  | K (Log of liquid dish neat product liquid-air partition coefficient greater than or equal to 7)
41 | CCCCCCCC1(C)OCC(C)O1 (centres unmarked) [Material 838] |  | K (Log of liquid dish neat product liquid-air partition coefficient greater than or equal to 7)
42 | CCC(C)c1nccnc1OC (centres unmarked) [Material 845] |  | K (Log of liquid dish neat product liquid-air partition coefficient greater than or equal to 7)
43 | CNC(=O)C(C)(C(C)C)C(C)C [Material 846] |  | K (Log of liquid dish neat product liquid-air partition coefficient greater than or equal to 7)
44 | CC(C)Cc1ccc2ccccc2n1 [Material 849] | K (Log of liquid dish neat product liquid-air partition coefficient greater than or equal to 7) | 
45 | CCC=CCCC=CCO [Material 865] | K (Log of liquid dish neat product liquid-air partition coefficient greater than or equal to 7) | 
46 | CCCCCCCCCCO [Material 868] | K (Log of liquid dish neat product liquid-air partition coefficient greater than or equal to 7) | 
47 | C=CCCCCCCCCCO [Material 870] | K (Log of liquid dish neat product liquid-air partition coefficient greater than or equal to 7) | 
48 | C=CCCCCCCCCC=O [Material 871] | K (Log of liquid dish neat product liquid-air partition coefficient greater than or equal to 7) | 
49 | CC1=C2CC(C(C)(C)O)CCC2(C)CCC1 (centres unmarked) [Material 872] | K (Log of liquid dish neat product liquid-air partition coefficient greater than or equal to 7) | K (Log of liquid dish neat product liquid-air partition coefficient greater than or equal to 7)
50 | CC=CC(=O)C1C(C)=CCCC1(C)C (centres unmarked) [Material 880] |  | K (Log of liquid dish neat product liquid-air partition coefficient greater than or equal to 7)
51 | CC(=O)OC(C)CCC=C(C)CCC=C(C)C (centres unmarked) [Material 881] | K (Log of liquid dish neat product liquid-air partition coefficient greater than or equal to 7) | 
52 | CCCCCCCC/C=C\CC=O [Material 884] | K (Log of liquid dish neat product liquid-air partition coefficient greater than or equal to 7) | 
